The IC50 is the concentration that gives 50% inhibition. High values mean weaker potency, low ones greater potency.

The test concerns the target T1, KDR receptor (Homo sapiens, UniProt P35968).
T1 construct: made in house; host or cells: insect cells (e.g. Spodoptera frugiperda Sf21, baculovirus)
As to the kind of experiment: In vitro receptor tyrosine kinase inhibition test (a), KDR receptor. It counts as biochemical. As to conditions: using the KDR receptor. From the text: (a) In vitro Receptor Tyrosine Kinase Inhibition Test
This assay determines the ability of a test compound to inhibit tyrosine kinase activity. DNA encoding VEGF, FGF or EGF receptor cytoplasmic domains may be obtained by total gene synthesis (Edwards M, International Biotechnology Lab 5(3), 19–25, 1987) or by cloning. These may then be expressed in a suitable expression system to obtain polypeptide with tyrosine kinase activity. […] In the case of the VEGF receptor Flt (Genbank accession number X51602), a 7 kb DNA fragment encoding most of the cytoplasmic domain, commencing with methionine 783 and including the termination codon, described by Shibuya et al (Oncogene, 1990, 5: 519–524), was isolated from cDNA and cloned into a baculovirus transplacement vector (for example pAcYM1 (see The Baculovirus Expression System: A Laboratory Guide, L. A. King and R. D. Possee, Chapman and Hall, 1992) or pAc360 or pBlueBacHis (available from Invitrogen Corporation)). This recombinant construct was co-transfected into insect cells (for example Spodoptera frugiperda 21(Sf21)) with viral DNA (eg Pharmingen BaculoGold) to prepare recombinant baculovirus. […]

T1 sequence (P35968 786-1356 limits assumed): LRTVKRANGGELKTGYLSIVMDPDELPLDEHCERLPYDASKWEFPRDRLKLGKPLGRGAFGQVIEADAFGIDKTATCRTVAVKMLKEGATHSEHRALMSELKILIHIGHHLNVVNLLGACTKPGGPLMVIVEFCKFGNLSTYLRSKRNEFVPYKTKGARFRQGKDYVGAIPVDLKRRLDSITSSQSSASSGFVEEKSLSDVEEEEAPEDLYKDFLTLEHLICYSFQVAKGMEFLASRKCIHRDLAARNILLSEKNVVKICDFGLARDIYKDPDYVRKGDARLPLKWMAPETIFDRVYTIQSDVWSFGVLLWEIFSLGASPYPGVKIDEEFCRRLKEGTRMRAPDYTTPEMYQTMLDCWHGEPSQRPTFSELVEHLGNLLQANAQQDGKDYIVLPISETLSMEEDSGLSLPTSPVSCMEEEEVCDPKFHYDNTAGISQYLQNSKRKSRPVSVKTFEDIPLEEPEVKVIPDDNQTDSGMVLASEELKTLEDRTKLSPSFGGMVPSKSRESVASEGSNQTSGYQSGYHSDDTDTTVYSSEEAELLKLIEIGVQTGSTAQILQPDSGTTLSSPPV

In turn, `COc1cc2c(Nc3ccc(Br)cc3F)ncnc2cc1OCC(O)CN1CCN(C)CC1` (stereo not shown) [Example 1] gave an IC50 of 15 to 50 nM.

Values taken from patent US7160889B2, “Quinazoline compounds” (AstraZeneca AB, priority 2000, dated 2007).
